Data published in ChEMBL document CHEMBL1800055, “Orally active MMP-1 sparing α-tetrahydropyranyl and α-piperidinyl sulfone matrix metalloproteinase (MMP) inhibitors with efficacy in cancer, arthritis, and cardiovascular disease” (J Med Chem, 2010).

Assays:
[1] = Cmax in rat at 20 mg/kg, po; format: ADME, organism-based; set-up: dose 20 mg/kg, route oral; details: in vivo
[2] = Oral bioavailability in rat at 20 mg/kg; format: ADME, organism-based; details: in vivo
Interstitial collagenase = biological target: T1, Interstitial collagenase (Homo sapiens, UniProt P03956); format: cell-based, HT-1080
T1 sequence (P03956 whole entry): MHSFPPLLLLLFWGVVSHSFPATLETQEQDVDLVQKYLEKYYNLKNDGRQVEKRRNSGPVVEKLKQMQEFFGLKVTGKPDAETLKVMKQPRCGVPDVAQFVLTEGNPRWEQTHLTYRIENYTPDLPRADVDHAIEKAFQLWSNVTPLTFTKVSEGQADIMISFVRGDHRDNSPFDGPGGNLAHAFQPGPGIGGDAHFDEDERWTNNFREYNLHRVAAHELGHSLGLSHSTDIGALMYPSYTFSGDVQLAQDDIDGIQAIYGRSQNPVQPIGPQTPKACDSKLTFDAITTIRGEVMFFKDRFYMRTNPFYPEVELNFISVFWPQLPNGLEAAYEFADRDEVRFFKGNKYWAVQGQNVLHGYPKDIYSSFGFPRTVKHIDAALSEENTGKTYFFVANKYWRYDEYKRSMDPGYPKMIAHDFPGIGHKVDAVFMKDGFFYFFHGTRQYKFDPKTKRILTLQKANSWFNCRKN

Rattus norvegicus [3] = test: Plasma concentration in rat at 20 mg/kg, po; format: ADME, organism-based; set-up: dose 20 mg/kg, route oral; details: in vivo
Stromelysin-1 = Stromelysin-1 (Homo sapiens, UniProt P08254)
[4] = Half life in rat at 20 mg/kg, po; format: ADME, organism-based; set-up: dose 20 mg/kg, route oral; details: in vivo
Collagenase 3 = Collagenase 3 (Homo sapiens, UniProt P45452)
[5] = biological target: 72 kDa type IV collagenase (Homo sapiens, UniProt P08253)
Matrilysin = biological target: T2, Matrilysin (Homo sapiens, UniProt P09237)
T2 sequence (P09237 whole entry): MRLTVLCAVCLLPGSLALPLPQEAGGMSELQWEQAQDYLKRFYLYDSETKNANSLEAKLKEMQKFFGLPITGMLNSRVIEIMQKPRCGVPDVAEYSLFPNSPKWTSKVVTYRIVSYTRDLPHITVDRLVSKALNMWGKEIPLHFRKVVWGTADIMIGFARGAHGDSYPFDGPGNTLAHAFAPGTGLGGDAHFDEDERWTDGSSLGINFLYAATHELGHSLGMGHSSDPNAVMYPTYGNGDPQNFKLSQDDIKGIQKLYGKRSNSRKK

Neutrophil collagenase = Neutrophil collagenase (Homo sapiens, UniProt P22894)
[6] = Tmax in male dog at 20 mg/kg, po after 24 hrs; format: ADME, organism-based, Canis lupus familiaris; set-up: dose 20 mg/kg, route oral; details: in vivo
[7] = Tmax in male rat at 20 mg/kg, po after 24 hrs; format: ADME, organism-based; set-up: dose 20 mg/kg, route oral; details: in vivo
[8] = Oral bioavailability in female mouse at 20 mg/kg after 24 hrs; format: ADME, organism-based; details: in vivo
[9] = AUC (0 to infinity) in female dog at 20 mg/kg, po after 24 hrs; format: ADME, organism-based, Canis lupus familiaris; set-up: time infinity, dose 20 mg/kg, route oral; details: plasma
[10] = Cmax in male rat at 20 mg/kg, po after 24 hrs; format: ADME, organism-based; set-up: dose 20 mg/kg, route oral; details: in vivo
[11] = Cmax in male dog at 20 mg/kg, po after 24 hrs; format: ADME, organism-based, Canis lupus familiaris; set-up: dose 20 mg/kg, route oral; details: in vivo
[12] = Oral bioavailability in male dog at 20 mg/kg after 24 hrs; format: ADME, organism-based, Canis lupus familiaris; details: in vivo
[13] = Oral bioavailability in female dog at 20 mg/kg after 24 hrs; format: ADME, organism-based, Canis lupus familiaris; details: in vivo
[14] = Tmax in female rat at 20 mg/kg, po after 24 hrs; format: ADME, organism-based; set-up: dose 20 mg/kg, route oral; details: in vivo
[15] = Oral bioavailability in male mouse at 20 mg/kg after 24 hrs; format: ADME, organism-based; details: in vivo
[16] = AUC (0 to infinity) in female mouse at 20 mg/kg, po after 24 hrs; format: ADME, organism-based; set-up: time infinity, dose 20 mg/kg, route oral; details: plasma
[17] = Cmax in male mouse at 20 mg/kg, po after 24 hrs; format: ADME, organism-based; set-up: dose 20 mg/kg, route oral; details: in vivo
[18] = Oral bioavailability in female rat at 20 mg/kg after 24 hrs; format: ADME, organism-based; details: in vivo
[19] = Oral bioavailability in cynomolgus monkey at 20 mg/kg after 24 hrs; format: ADME, organism-based, Macaca fascicularis; details: in vivo
Rattus norvegicus [20] = test: Cardioprotective activity in rat myocardial infarction model assessed inhibition of left ventricular dilation at 10 mg/kg, po qd for 4 weeks (reference value: 0.59 +/- 0.02 mL); format: functional, Heart left ventricle
[21] = Cmax in cynomolgus monkey at 20 mg/kg, po after 24 hrs; format: ADME, organism-based, Macaca fascicularis; set-up: dose 20 mg/kg, route oral; details: in vivo
[22] = Tmax in male mouse at 20 mg/kg, po after 24 hrs; format: ADME, organism-based; set-up: dose 20 mg/kg, route oral; details: in vivo
[23] = AUC (0 to infinity) in male dog at 20 mg/kg, po after 24 hrs; format: ADME, organism-based, Canis lupus familiaris; set-up: time infinity, dose 20 mg/kg, route oral; details: plasma
[24] = Tmax in female mouse at 20 mg/kg, po after 24 hrs; format: ADME, organism-based; set-up: dose 20 mg/kg, route oral; details: in vivo
PC-3 = test: Antitumor activity against human PC3 cells xenografted in po dosed BALB/c nu/nu mouse assessed as tumor growth inhibition administered BID measured on 25 to 30 days; format: functional, organism-based
[25] = AUC (0 to infinity) in cynomolgus monkey at 20 mg/kg, po after 24 hrs; format: ADME, organism-based, Macaca fascicularis; set-up: dose 20 mg/kg, route oral, time infinity; details: plasma
[26] = Tmax in female dog at 20 mg/kg, po after 24 hrs; format: ADME, organism-based, Canis lupus familiaris; set-up: dose 20 mg/kg, route oral; details: in vivo
[27] = Cmax in female mouse at 20 mg/kg, po after 24 hrs; format: ADME, organism-based; set-up: dose 20 mg/kg, route oral; details: in vivo
[28] = Cmax in female rat at 20 mg/kg, po after 24 hrs; format: ADME, organism-based; set-up: dose 20 mg/kg, route oral; details: in vivo
[29] = Oral bioavailability in male rat at 20 mg/kg after 24 hrs; format: ADME, organism-based; details: in vivo
[30] = AUC (0 to infinity) in female rat at 20 mg/kg, po after 24 hrs; format: ADME, organism-based; set-up: time infinity, dose 20 mg/kg, route oral; details: plasma
[31] = AUC (0 to infinity) in male mouse at 20 mg/kg, po after 24 hrs; format: ADME, organism-based; set-up: time infinity, dose 20 mg/kg, route oral; details: plasma
Mus musculus = test: Antiangiogenic activity in cornea of mouse bFGF-induced corneal micropocket model assessed as inhibition of angiogenesis at 5 mg/kg administered as BID; format: functional
[32] = Tmax in cynomolgus monkey at 20 mg/kg, po after 24 hrs; format: ADME, organism-based, Macaca fascicularis; set-up: dose 20 mg/kg, route oral; details: in vivo
[33] = Cmax in female dog at 20 mg/kg, po after 24 hrs; format: ADME, organism-based, Canis lupus familiaris; set-up: dose 20 mg/kg, route oral; details: in vivo
[34] = AUC (0 to infinity) in male rat at 20 mg/kg, po after 24 hrs; format: ADME, organism-based; set-up: time infinity, dose 20 mg/kg, route oral; details: plasma

72 kDa type IV collagenase, sequence (P08253 whole entry): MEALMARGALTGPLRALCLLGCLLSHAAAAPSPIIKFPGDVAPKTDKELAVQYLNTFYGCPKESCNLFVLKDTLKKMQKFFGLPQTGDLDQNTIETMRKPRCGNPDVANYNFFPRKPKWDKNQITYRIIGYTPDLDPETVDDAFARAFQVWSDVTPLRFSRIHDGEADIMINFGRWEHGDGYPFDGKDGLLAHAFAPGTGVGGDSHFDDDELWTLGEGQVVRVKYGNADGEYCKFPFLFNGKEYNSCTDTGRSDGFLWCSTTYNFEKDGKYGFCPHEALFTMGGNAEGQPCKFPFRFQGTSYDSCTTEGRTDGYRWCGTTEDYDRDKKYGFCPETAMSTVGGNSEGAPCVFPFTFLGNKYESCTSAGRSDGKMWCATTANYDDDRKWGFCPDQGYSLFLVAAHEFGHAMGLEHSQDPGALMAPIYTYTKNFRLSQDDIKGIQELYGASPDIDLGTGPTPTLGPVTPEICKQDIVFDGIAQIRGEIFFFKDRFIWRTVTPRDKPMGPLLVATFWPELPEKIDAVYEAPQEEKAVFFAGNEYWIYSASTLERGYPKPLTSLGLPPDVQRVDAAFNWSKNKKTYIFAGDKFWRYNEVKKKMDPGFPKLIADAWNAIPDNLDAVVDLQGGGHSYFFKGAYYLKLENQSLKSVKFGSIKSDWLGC
Stromelysin-1, sequence (P08254 whole entry): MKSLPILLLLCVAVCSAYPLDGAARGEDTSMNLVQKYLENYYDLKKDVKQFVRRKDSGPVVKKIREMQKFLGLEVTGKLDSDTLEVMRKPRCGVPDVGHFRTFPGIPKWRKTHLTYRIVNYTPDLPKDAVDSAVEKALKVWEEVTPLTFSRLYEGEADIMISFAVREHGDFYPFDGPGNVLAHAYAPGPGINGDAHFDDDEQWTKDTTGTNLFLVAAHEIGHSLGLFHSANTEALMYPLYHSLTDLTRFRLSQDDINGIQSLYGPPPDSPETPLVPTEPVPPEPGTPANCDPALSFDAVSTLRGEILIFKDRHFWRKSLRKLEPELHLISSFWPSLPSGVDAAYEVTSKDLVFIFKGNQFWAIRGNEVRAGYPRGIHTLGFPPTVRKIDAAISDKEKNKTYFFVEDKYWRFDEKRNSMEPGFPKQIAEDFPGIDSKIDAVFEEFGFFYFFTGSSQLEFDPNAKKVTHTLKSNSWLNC
Neutrophil collagenase, sequence (P22894 whole entry): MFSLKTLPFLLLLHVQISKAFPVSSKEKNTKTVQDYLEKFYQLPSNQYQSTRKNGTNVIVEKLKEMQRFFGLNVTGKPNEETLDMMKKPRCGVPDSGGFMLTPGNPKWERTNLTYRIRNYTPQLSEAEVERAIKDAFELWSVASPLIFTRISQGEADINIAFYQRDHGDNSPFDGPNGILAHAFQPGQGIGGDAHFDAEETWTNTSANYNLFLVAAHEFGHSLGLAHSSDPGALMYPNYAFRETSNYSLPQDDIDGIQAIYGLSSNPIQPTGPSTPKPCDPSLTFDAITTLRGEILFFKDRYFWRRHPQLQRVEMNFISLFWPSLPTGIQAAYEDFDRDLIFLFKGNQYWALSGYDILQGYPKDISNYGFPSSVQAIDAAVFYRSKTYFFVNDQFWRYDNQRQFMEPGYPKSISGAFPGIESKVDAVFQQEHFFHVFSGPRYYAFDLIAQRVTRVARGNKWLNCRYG

COCCN1CCC(C(=O)NO)(S(=O)(=O)c2ccc(Oc3ccc(SC(F)(F)F)cc3)cc2)CC1
Cmax [1]: 32900 ng/mL | bioavailability [2]: 34.1% | IC50 (Interstitial collagenase): > 10 µM | Cp (Rattus norvegicus [3]): 14078 ng/mL | IC50 (Stromelysin-1): 23.9 nM | half-life [4]: 179 min | IC50 (Collagenase 3): 0.2 nM | IC50 [5]: 0.2 nM | IC50 (Matrilysin): 9 µM | IC50 (Neutrophil collagenase): 1.9 nM

O=C(NO)C1(S(=O)(=O)c2ccc(Oc3ccc(OC(F)(F)F)cc3)cc2)CCN(Cc2cccnc2)CC1
Cmax [1]: 52600 ng/mL | bioavailability [2]: 49.8% | IC50 (Interstitial collagenase): 4.6 µM | Cp (Rattus norvegicus [3]): 1900 ng/mL | IC50 (Stromelysin-1): 42.5 nM | half-life [4]: 63 min | IC50 (Collagenase 3): 0.2 nM | IC50 [5]: < 0.1 nM | IC50 (Matrilysin): > 10 µM | IC50 (Neutrophil collagenase): 1.5 nM

COCCN1CCC(C(=O)NO)(S(=O)(=O)c2ccc(Oc3ccc(OC(F)(F)F)cc3)cc2)CC1
Tmax [6]: 50 min | Tmax [7]: 2 h | Cmax [1]: 29600 ng/mL | bioavailability [8]: 80.8% | AUC(0-inf) [9]: 156 µg·h/mL | bioavailability [2]: 67.9% | IC50 (Interstitial collagenase): > 10 µM | Cp (Rattus norvegicus [3]): 20521 ng/mL | Cmax [10]: 42400 ng/mL | IC50 (Stromelysin-1): 28.7 nM | Cmax [11]: 60.6 µg/mL | bioavailability [12]: 64% | bioavailability [13]: 69.2% | half-life [4]: 176 min | Tmax [14]: 4 h | IC50 (Collagenase 3): < 0.1 nM | bioavailability [15]: 51.7% | AUC(0-inf) [16]: 36100 ng·h/mL | IC50 [5]: < 0.1 nM | Cmax [17]: 26600 ng/mL | bioavailability [18]: 82.2% | bioavailability [19]: 53.8% | Activity (Rattus norvegicus [20]): 0.51 mL | Cmax [21]: 37100 ng/mL | Tmax [22]: 10 min | AUC(0-inf) [23]: 228 µg·h/mL | Tmax [24]: 10 min | inhibition (PC-3): Dose-dependent effect | AUC(0-inf) [25]: 191 µg·h/mL | Tmax [26]: 30 min | Cmax [27]: 41000 ng/mL | IC50 (Matrilysin): 7 µM | Cmax [28]: 69.8 µg/mL | bioavailability [29]: 66.6% | AUC(0-inf) [30]: 668 µg·h/mL | IC50 (Neutrophil collagenase): 1.7 nM | AUC(0-inf) [31]: 29300 ng·h/mL | inhibition in vivo at 5 mg/kg (Mus musculus): 60% | Tmax [32]: 1.67 h | Cmax [33]: 68.9 µg/mL | AUC(0-inf) [34]: 273 µg·h/mL

O=C(NO)C1(S(=O)(=O)c2ccc(Oc3ccc(OC(F)(F)F)cc3)cc2)CCN(Cc2ccccn2)CC1
Cmax [1]: 36800 ng/mL | bioavailability [2]: 46.8% | IC50 (Interstitial collagenase): 6 µM | Cp (Rattus norvegicus [3]): 1850 ng/mL | IC50 (Stromelysin-1): 115 nM | half-life [4]: 75 min | IC50 (Collagenase 3): < 0.1 nM | IC50 (Matrilysin): > 10 µM | IC50 (Neutrophil collagenase): 0.6 nM
